# Patent US20250092039A1, “GLUTARIMIDE-CONTAINING PAN-KRAS-MUTANT DEGRADER COMPOUNDS AND USES THEREOF” (Tiger Biotherapeutics Inc., priority 2022, published 2025)
# Read-outs that look alike come from different tables or passages of the source.
# What was measured:
# KRAS-G12V/RAF1 = KRAS-G12V/RAF1 (Homo sapiens (Human), UniProt P01116, G12V); experiment: KRAS/RAF1 binding inhibition assay (AlphaScreen)
# Summary of the method: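 IC50 comes from variable-slope nonlinear fits of % inhibition (relative to DMSO) against inhibitor concentration. The AlphaScreen signal tracks the interaction of GppNHp-bound KRAS G12V with the RAF1 RBD after 60 min at 4° C with compound in 2% DMSO final.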
# KRAS G12V = KRAS G12V (Homo sapiens (Human), UniProt P01116, G12V); experiment: KRAS G12V degradation in SW620 cells (Western blot, DC50); assay type: cell-based; details: 24 hours
# Summary of the method: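 KRAS levels were quantified by fluorescent Western blot as percent of the DMSO control after 24 h of compound exposure at 37° C in homozygous KRAS G12V SW620 cells. A four-parameter variable-slope fit of the dose-response gave the half-maximal degradation concentration.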
# SW620 cells = experiment: 3D cell growth inhibition of SW620 cells carrying endogenous KRAS G12V mutation (CellTiter-Glo 3D, GI50); assay type: cell-based; details: SW620 cells, 6 days, read-out: SW620 3D cell growth GI50
# Method: The following day, the test compound was administered to the cells by using 1000× compound stock solution prepared in DMSO at various concentrations. 1000× compound stock solution was first diluted in culturing medium to 10×, then 10 μL compound medium was added to each well in the cell plates. After administration of the compound, the cells were then incubated at 37° C. for 6 days. Upon completion, the plates were equilibrated at room temperature for approximately 10 minutes. 100 μL of CellTiter-Glo® 3D Reagent (Promega) was added to each well. The plates were then incubated at room temperature for 30 minutes and luminescence was recorded by EnSpire plate reader (PerkinElmer).
# Sequence of KRAS G12V (P01116-2 other isoform, or with tags, fused parts or gaps G12V): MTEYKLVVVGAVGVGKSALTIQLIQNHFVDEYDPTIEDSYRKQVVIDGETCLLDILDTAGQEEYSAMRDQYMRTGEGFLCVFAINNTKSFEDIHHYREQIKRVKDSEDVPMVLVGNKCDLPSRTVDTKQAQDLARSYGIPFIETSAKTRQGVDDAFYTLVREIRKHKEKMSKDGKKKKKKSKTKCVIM
# Sequence of KRAS-G12V/RAF1 (P01116-2 other isoform, or with tags, fused parts or gaps G12V): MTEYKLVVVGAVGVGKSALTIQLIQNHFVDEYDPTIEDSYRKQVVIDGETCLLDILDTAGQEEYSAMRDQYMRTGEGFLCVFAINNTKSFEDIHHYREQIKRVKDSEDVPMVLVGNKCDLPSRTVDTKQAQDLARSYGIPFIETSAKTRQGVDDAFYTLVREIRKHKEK
Structure (SMILES),IC50 (KRAS-G12V/RAF1) [nM],DC50 (KRAS G12V) [nM],"GI50 (SW620 cells; Homo sapiens, SW-620, 144 h) [nM]",GI50 (SW620 cells) [nM]
"CCc1c(F)ccc2cc(O)cc(-c3ncc4c(N5CCC=CCC5)nc(OCC5(CN6CCC7(CC6)CC(CN6CCN(c8ccc9c(c8)CN([C@H]8CCC(=O)NC8=O)C9=O)CC6)C7)CC5)nc4c3F)c12 [Compound 4, (S)-3-(5-(4-((7-((1-(((7-(8-ethyl-7-fluoro-3-hydroxynaphthalen-1-yl)-8-fluoro-4-(2,3,6,7-tetrahydro-1H-azepin-1-yl)pyrido[4,3-d]pyrimidin-2-yl)oxy)methyl)cyclopropyl)methyl)-7-azaspiro[3.5]nonan-2-yl)methyl)piperazin-1-yl)-1-oxoisoindolin-2-yl)piperidine-2,6-dione]",> 200,> 100,> 100,
"CCc1c(F)ccc2cc(O)cc(-c3ncc4c(N5CCC[C@@](C)(O)C5)nc(OCC5(CN6CCC7(CC6)CC(C6CCN(c8ccc9c(c8)CN(C8CCC(=O)NC8=O)C9=O)CC6)C7)CC5)nc4c3F)c12 (stereo partly drawn) [Compound 186, 3-(5-(4-(7-((1-(((7-(8-ethyl-7-fluoro-3-hydroxynaphthalen-1-yl)-8-fluoro-4-((R)-3-hydroxy-3-methylpiperidin-1-yl)pyrido[4,3-d]pyrimidin-2-yl)oxy)methyl)cyclopropyl)methyl)-7-azaspiro[3.5]nonan-2-yl)piperidin-1-yl)-1-oxoisoindolin-2-yl)piperidine-2,6-dione]",> 200,< 1,< 10,
"CCc1cccc2cc(O)cc(-c3ncc4c(N5CCC[C@@](C)(O)C5)nc(OCC5(CN6CC[C@@H](CN7CC8(CCN(c9ccc%10c(c9)CN(C9CCC(=O)NC9=O)C%10=O)CC8)C7)C6)CC5)nc4c3F)c12 (stereo partly drawn) [Compound 18, 3-(5-(2-(((R)-1-((1-(((7-(8-ethyl-3-hydroxynaphthalen-1-yl)-8-fluoro-4-((R)-3-hydroxy-3-methylpiperidin-1-yl)pyrido[4,3-d]pyrimidin-2-yl)oxy)methyl)cyclopropyl)methyl)pyrrolidin-3-yl)methyl)-2,7-diazaspiro[3.5]nonan-7-yl)-1-oxoisoindolin-2-yl)piperidine-2,6-dione]",< 20,> 100,10 to 100,
"CCc1cccc2cc(O)cc(-c3ncc4c(N5CCC[C@@](C)(O)C5)nc(OCC5(CN6CC7(CCC(N8CCN(c9ccc%10c(c9)CN([C@H]9CCC(=O)NC9=O)C%10=O)CC8)CC7)C6)CC5)nc4c3F)c12 [Compound 142, (S)-3-(5-(4-(2-((1-(((7-(8-ethyl-3-hydroxynaphthalen-1-yl)-8-fluoro-4-((R)-3-hydroxy-3-methylpiperidin-1-yl)pyrido[4,3-d]pyrimidin-2-yl)oxy)methyl)cyclopropyl)methyl)-2-azaspiro[3.5]nonan-7-yl)piperazin-1-yl)-1-oxoisoindolin-2-yl)piperidine-2,6-dione]",20 to 200,1 to 10,,> 100
"CCc1c(F)ccc2cc(O)cc(-c3ncc4c(N5CCC[C@]6(CCO6)C5)nc(OCC5(CN6CCC(CN7CCN(c8ccc9c(c8)CN([C@H]8CCC(=O)NC8=O)C9=O)CC7)CC6)CC5)nc4c3F)c12 [Compound 44, (S)-3-(5-(4-((1-((1-(((7-(8-ethyl-7-fluoro-3-hydroxynaphthalen-1-yl)-8-fluoro-4-((S)-1-oxa-6-azaspiro[3.5]nonan-6-yl)pyrido[4,3-d]pyrimidin-2-yl)oxy)methyl)cyclopropyl)methyl)piperidin-4-yl)methyl)piperazin-1-yl)-1-oxoisoindolin-2-yl)piperidine-2,6-dione]",20 to 200,,< 10,
"CCc1cccc2cc(O)cc(-c3ncc4c(N(C)[C@@H]5C[C@H]5F)nc(OCC5(CN6CCC(CN7CCN(c8ccc9c(c8)CN([C@H]8CCC(=O)NC8=O)C9=O)CC7)CC6)CC5)nc4c3F)c12 [Compound 29, (S)-3-(5-(4-((1-((1-(((7-(8-ethyl-3-hydroxynaphthalen-1-yl)-8-fluoro-4-(((1R,2R)-2-fluorocyclopropyl)(methyl)amino)pyrido[4,3-d]pyrimidin-2-yl)oxy)methyl)cyclopropyl)methyl)piperidin-4-yl)methyl)piperazin-1-yl)-1-oxoisoindolin-2-yl)piperidine-2,6-dione]",> 200,,10 to 100,
"CCc1c(F)ccc2cc(O)cc(-c3ncc4c(N5CCC[C@@]6(CCO6)C5)nc(OCC5(CN6CCC(CN7CCN(c8ccc9c(c8)CN([C@H]8CCC(=O)NC8=O)C9=O)CC7)CC6)CC5)nc4c3F)c12 [Compound 45, (S)-3-(5-(4-((1-((1-(((7-(8-ethyl-7-fluoro-3-hydroxynaphthalen-1-yl)-8-fluoro-4-((R)-1-oxa-6-azaspiro[3.5]nonan-6-yl)pyrido[4,3-d]pyrimidin-2-yl)oxy)methyl)cyclopropyl)methyl)piperidin-4-yl)methyl)piperazin-1-yl)-1-oxoisoindolin-2-yl)piperidine-2,6-dione]",> 200,,> 100,
"Cc1cc(N)nc(-c2c(Cl)c3c4c(nc(OCC5(CN6CCC7(CC6)CC(CN6CCN(c8ccc9c(c8)CN([C@H]8CCC(=O)NC8=O)C9=O)CC6)C7)CC5)nc4c2F)N(C(C)c2cccnc2N)CCO3)c1C(F)(F)F (stereo partly drawn) [Compound 5, (3S)-3-(5-(4-((7-((1-(((9-(6-amino-4-methyl-3-(trifluoromethyl)pyridin-2-yl)-4-(1-(2-aminopyridin-3-yl)ethyl)-8-chloro-10-fluoro-5,6-dihydro-4H-[1,4]oxazepino[5,6,7-de]quinazolin-2-yl)oxy)methyl)cyclopropyl)methyl)-7-azaspiro[3.5]nonan-2-yl)methyl)piperazin-1-yl)-1-oxoisoindolin-2-yl)piperidine-2,6-dione]",,> 100,> 100,
"CCc1c(F)ccc2cc(O)cc(-c3ncc4c(N5CCC[C@@](C)(O)C5)nc(OCC5(CN6CCC7(CC6)CC(CN6Cc8ccc(C9CCC(=O)NC9=O)cc8C6)C7)CC5)nc4c3F)c12 (stereo partly drawn) [Compound 34, 3-(2-((7-((1-(((7-(8-ethyl-7-fluoro-3-hydroxynaphthalen-1-yl)-8-fluoro-4-((R)-3-hydroxy-3-methylpiperidin-1-yl)pyrido[4,3-d]pyrimidin-2-yl)oxy)methyl)cyclopropyl)methyl)-7-azaspiro[3.5]nonan-2-yl)methyl)isoindolin-5-yl)piperidine-2,6-dione]",,> 100,> 100,
"CCc1c(F)ccc2cc(O)cc(-c3ncc4c(N5CCCNC(=O)C5)nc(OCC5(CN6CCC7(CC6)CC(CN6CCN(c8ccc9c(c8)CN([C@H]8CCC(=O)NC8=O)C9=O)CC6)C7)CC5)nc4c3F)c12 [Compound 93, (S)-3-(5-(4-((7-((1-(((7-(8-ethyl-7-fluoro-3-hydroxynaphthalen-1-yl)-8-fluoro-4-(3-oxo-1,4-diazepan-1-yl)pyrido[4,3-d]pyrimidin-2-yl)oxy)methyl)cyclopropyl)methyl)-7-azaspiro[3.5]nonan-2-yl)methyl)piperazin-1-yl)-1-oxoisoindolin-2-yl)piperidine-2,6-dione]",,> 100,> 100,
"CCc1c(F)ccc2cc(O)cc(-c3ncc4c(N5CCC[C@@](C)(O)C5)nc(OCC5(CN6CC(N7CC8(CN(c9ccc%10c(c9)CN(C9CCC(=O)NC9=O)C%10=O)C8)C7)C6)CC5)nc4c3F)c12 (stereo partly drawn) [Compound 158, 3-(5-(6-(1-((1-(((7-(8-ethyl-7-fluoro-3-hydroxynaphthalen-1-yl)-8-fluoro-4-((R)-3-hydroxy-3-methylpiperidin-1-yl)pyrido[4,3-d]pyrimidin-2-yl)oxy)methyl)cyclopropyl)methyl)azetidin-3-yl)-2,6-diazaspiro[3.3]heptan-2-yl)-1-oxoisoindolin-2-yl)piperidine-2,6-dione]",,1 to 10,< 10,
